The target in one series is human mGlu2 receptor (Homo sapiens (Human), UniProt Q14416). Briefly: Assessment of mGlu2 receptor negative allosteric modulator activity in human mGlu2 receptor stable expressing cells (aequorin luminescence, EC80 glutamate). In kind it is cell-based. As to conditions: human mGlu2 receptor stable expressing HEK cells; compound added 120 seconds before EC80 glutamate; luminescence (RLU); read-out: mGluR2 NAM IC50 (nM) or inhibition rate (%). The protocol:
Test 1: Assessment with Human mGlu2 Receptor Stable Expressing Cells
(1) Human mGlu2 Receptor Stable Expressing Cells
Human mGlu2 receptor stable expressing cells were prepared, and used for incubation. Specifically, human mGlu2 receptor gene was inserted into pcDNA4/TO (K1020-01, Life technologies, Carlsbad, Calif., USA), and introduced into TR-expressed human kidney-derived HEK cells (cat #CCL-82.2, ATCC, USA), followed by screening with Geneticin (cat #10131-027, Life technologies, Carlsbad, Calif., USA), to obtain human mGlu2 receptor stable expressing cells.
High glucose-DMEM media (cat #11995-065, Life technologies, Carlsbad, Calif., USA) containing 10% Dialysed-FBS (cat #26400-044, Life technologies, Carlsbad, Calif., USA), 50 μg/mL Blasticidin S (cat #ANT-BL-1, Life technologies, Carlsbad, Calif., USA), and 2 mg/mL G418 (cat #16513-84, nacalai tesque, Kyoto, Japan) were used for incubation on flasks for cell culture (cat #3133-150, AGC Thechno Glass, Shizuoka, Japan). During the incubation, cells were recovered by the treatment with TrypLE Express (cat #12604-013, Life technologies, Carlsbad, Calif., USA), followed by subculture, every three to four days.
Cells were recovered by an about 80% confluency in the treatment with TrypLE Express three to four days after the subculture, transiently transfected with Ga16, apoaequorin, in media of Hanks (cat #14065-056, Life technologies, Carlsbad, Calif., USA)/20 mmol/L HEPES (cat #15630-080, Life technologies, Carlsbad, Calif., USA) Buffer (pH 7.4) containing 0.1% BSA (cat #12604-013, Life technologies, Carlsbad, Calif., USA) and 0.1 μg/mL Tetracycline (cat #33031-64, nacalai tesque, Kyoto, Japan), and then seeded on a 384-well plate (cat #781090, Greiner bio-one, Frickenhausen, Germany) in 1,500 cells/30 μL/well.
Coelentetrazine h (cat #S2011, Promega, Madison, Wis., USA) was added to the plate (10 μl/well) so as to be a final concentration of 1 μmol/L on the day after the seeding, and let stand for 4 hours or more at room temperature after centrifugation.
(2) Preparation of Test Compounds
A test compound was dissolved in DMSO so as to be a concentration 1000 times higher than the assessment concentration. This DMSO solution was diluted with a medium (Hanks, 20 mmol/L HEPES, 0.1% BSA) to a concentration 6 times higher than the assessment concentration. Glutamate was diluted with Hanks/20 mmol/L HEPES/0.1% BSA medium to a concentration 6 times higher than EC80 concentration.
(3) Assessment of mGlu2 Receptor Negative Allosteric Modulator Activity
Human mGlu2 receptor stable expressing cells were prepared and incubated. Luminescence signals by mGlu2 receptor stimulation were detected with FDSS7000 (Hamamatsu Photonics). The compound solution prepared above was added to a plate where cells and luminescent substrates were added (10 μl/well). After 120 seconds of the addition, EC80 Glutamate-containing solution was added thereto (10 μl/well), and luminescence signals were measured for 300 seconds after the addition (center wavelength: 465 nm) for calculation of RLU (Integration). mGlu2 receptor negative allosteric modulator activity of a compound was calculated by (100-100×(RLU of each compound and concentration)/(RLU of DMSO group)).
The present compound was assessed with the above biological test, and the compounds with mGlu2 receptor negative allosteric modulator activity were found out. mGlu2 receptor negative allosteric modulator activity (IC50 value (nmol/L)) for each compound is shown in the following table.

Another series deals with CYP3A4 (Homo sapiens (Human), UniProt P08684). Briefly: Assessment of MBI and enzyme inactivation clearance against CYP3A4 (human liver microsomes, midazolam or testosterone as substrate). In kind it is in vitro ADME. As to conditions: for microsomal CLint: probe midazolam or testosterone, CYP3A4, human liver microsomes, CLint = kinact/KI x CYP contents; for CYP3A4 MBI: shift in IC50 values due to preincubation with NADPH, human liver microsomes, MBI potential when 2-fold or more, N.D. = Not Detected. The text has this: Test 4: Assessment of MBT and Enzyme Inactivation Clearance Against CYP3A4
Sequence of CYP3A4 (P08684 whole entry): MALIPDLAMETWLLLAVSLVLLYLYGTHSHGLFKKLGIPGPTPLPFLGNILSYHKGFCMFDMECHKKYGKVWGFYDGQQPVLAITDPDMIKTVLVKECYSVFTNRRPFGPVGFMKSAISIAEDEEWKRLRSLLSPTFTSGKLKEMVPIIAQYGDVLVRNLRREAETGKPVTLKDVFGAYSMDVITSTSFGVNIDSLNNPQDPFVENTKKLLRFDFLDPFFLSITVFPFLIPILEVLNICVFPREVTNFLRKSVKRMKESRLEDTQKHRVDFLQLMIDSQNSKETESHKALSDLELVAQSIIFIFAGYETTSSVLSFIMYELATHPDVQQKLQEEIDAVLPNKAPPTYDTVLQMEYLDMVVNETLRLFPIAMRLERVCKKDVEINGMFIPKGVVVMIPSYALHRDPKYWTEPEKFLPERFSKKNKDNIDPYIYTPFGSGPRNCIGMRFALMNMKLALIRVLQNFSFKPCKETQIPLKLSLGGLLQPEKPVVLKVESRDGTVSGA
Cytochrome P450 (hereinafter called CYP) is the most important enzyme group associated with drug metabolism, and most of pharmacokinetic interactions are based on the inhibition of the CYP activities. CYP includes multiple molecular species. In particular, CYP3A4 is most involved in drug metabolism in oxidation reaction with CYP, and accounts for a major portion of CYPs existing in the liver.
CYP inhibition is generally divided into two types consisting of “reversible inhibition” and “irreversible inhibition (mechanism-based inhibition: MBI)”. In particular, CYP inhibition based on the MBI is known to have a possibility to cause severe side effects such as hepatotoxicity as well as drug-drug interactions (Curr Opin Drug Discov Devel. 2010 January, 13(1), 66-77, Therapeutics and Clinical Risk Management, 2005, 1(1), 3-13).
MBI and enzyme inactivation clearance against CYP3A4 were evaluated for example compounds.
Inhibition effects and inhibition types of test compounds to CYP3A4 were evaluated using human liver microsomes as an enzyme source and midazolam or testosterone as a substrate of CYP3A4. After metabolic reaction for 30 minutes at 37° C., metabolites of CYP3A4 substrate in the presence or absence of a test compound (at 4 concentrations) were measured by LC-MS/MS, and the inhibition rates were calculated from the ratios of peak area. IC50 values were calculated from plots of test compound concentrations. It was known that when a test compound has MBI potential, IC50 value is lowered by starting metabolic reactions after preincubation in the presence of NADPH (cofactor). Therefore, it was determined that there was MBI potential when the shift in IC50 values due to preincubation was 2-fold or more (Xenobiotica, 2009, 39(2), 99-112).
When MBI potential was determined, kinact (maximum inactivation rate constant) and KI (inactivator concentration yielding a measured inactivation rate at half of kinact) were calculated by the non-linear least-squares method. Enzyme inactivation clearance was calculated according to the method described in Drug Metabolism and Disposition, 2011, 39(7), 1247-1254 (CLint=kinact/KI([…])×CYP contents (pmol/mg protein)).
(Microsomes from liver hold many membrane-bound enzymes, among them those of drug oxidation.)

Sequence of human mGlu2 receptor (Q14416 19-872): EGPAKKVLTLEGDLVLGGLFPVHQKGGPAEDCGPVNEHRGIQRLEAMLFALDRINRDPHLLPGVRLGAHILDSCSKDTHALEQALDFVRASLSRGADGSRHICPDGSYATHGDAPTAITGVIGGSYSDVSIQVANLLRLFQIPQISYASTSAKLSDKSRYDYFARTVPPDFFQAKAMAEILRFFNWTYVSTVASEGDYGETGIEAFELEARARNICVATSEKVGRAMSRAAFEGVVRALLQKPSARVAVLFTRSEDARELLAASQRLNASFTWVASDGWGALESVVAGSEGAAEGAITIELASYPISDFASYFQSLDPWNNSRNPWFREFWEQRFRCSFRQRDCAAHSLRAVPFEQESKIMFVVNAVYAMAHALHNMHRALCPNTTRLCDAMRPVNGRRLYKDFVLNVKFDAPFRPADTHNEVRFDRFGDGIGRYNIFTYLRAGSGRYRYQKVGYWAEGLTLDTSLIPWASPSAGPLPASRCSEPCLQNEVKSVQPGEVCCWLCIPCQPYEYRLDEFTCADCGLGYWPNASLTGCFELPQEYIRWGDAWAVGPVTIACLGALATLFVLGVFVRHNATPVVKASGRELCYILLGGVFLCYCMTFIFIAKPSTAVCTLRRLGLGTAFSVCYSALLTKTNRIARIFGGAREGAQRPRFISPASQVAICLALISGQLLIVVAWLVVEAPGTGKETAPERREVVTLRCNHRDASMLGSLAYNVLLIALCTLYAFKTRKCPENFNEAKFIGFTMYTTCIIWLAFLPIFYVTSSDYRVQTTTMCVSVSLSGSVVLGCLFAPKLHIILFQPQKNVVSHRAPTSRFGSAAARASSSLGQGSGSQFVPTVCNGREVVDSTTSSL

As to `C[C@H]1CN(c2ccc(C(F)(F)F)cc2)C(=O)c2c(-c3ccc4nccn4c3)cnn21` [Example 1, (7S)-3-(imidazo[1,2-a]pyridin-6-yl)-7-methyl-5-[4-(trifluoromethyl)phenyl]-6,7-dihydropyrazolo[1,5-a]pyrazin-4(5H)-one], at human mGlu2 receptor, the IC50 amounted to 18 nM. On the same count and under the same terms, next, `C[C@H]1CN(c2ccc(C(F)(F)F)cc2)C(=O)c2c(-c3cn4ccnc4cn3)cnn21` [Example 2, (7S)-3-(imidazo[1,2-a]pyrazin-6-yl)-7-methyl-5-[4-(trifluoromethyl)phenyl]-6,7-dihydropyrazolo[1,5-a]pyrazin-4(5H)-one]: 11 nM.

With `C[C@H]1CN(c2ccc(F)c(Cl)c2)C(=O)c2c(-c3ccc4nccn4c3)cnn21` [Example 3, (7S)-5-(3-chloro-4-fluorophenyl)-3-(imidazo[1,2-a]pyridin-6-yl)-7-methyl-6,7-dihydropyrazolo[1,5-a]pyrazin-4 (5H)-one], the IC50 at human mGlu2 receptor came to 23 nM. As for `C[C@H]1CN(c2ccc(C(F)F)cc2)C(=O)c2c(-c3ccc4nccn4c3)cnn21` [Example 4, (7S)-5-[4-(difluoromethyl)phenyl]-3-(imidazo[1,2-a]pyridin-6-yl)-7-methyl-6,7-dihydropyrazolo[1,5-a]pyrazin-4(5H)-one], the IC50 on human mGlu2 receptor was determined as 33 nM.

`C[C@H]1CN(c2ccc(Cl)s2)C(=O)c2c(-c3ccc4nccn4c3)cnn21` [Example 7, (7S)-5-(5-chlorothiophen-2-yl)-3-(imidazo[1,2-a]pyridin-6-yl)-7-methyl-6,7-dihydropyrazolo[1,5-a]pyrazin-4(5H)-one]: the half-maximal inhibitory concentration (IC50) on human mGlu2 receptor came out at 11 nM. In addition, at CYP3A4, the microsomal CLint came to 2.15 µL/min/mg and the “CYP3A4 MBI” value worked out at 4.5. As for `C[C@H]1CN(c2ccc3c(c2)OC(F)(F)O3)C(=O)c2c(-c3ccc4nccn4c3)cnn21` [Example 8, (7S)-5-(2,2-difluoro-1,3-benzodioxol-5-yl)-3-(imidazo[1,2-a]pyridin-6-yl)-7-methyl-6,7-dihydropyrazolo[1,5-a]pyrazin-4(5H)-one], at CYP3A4, the intrinsic clearance (microsomal CLint) was 0.601 µL/min/mg and the “CYP3A4 MBI” value is listed as 2.2. Take `C[C@H]1CN(c2ccc(OC(F)F)cc2)C(=O)c2c(-c3ccc4nccn4c3)cnn21` [Example 9, (7S)-5-[4-(difluoromethoxy)phenyl]-3-(imidazo[1,2-a]pyridin-6-yl)-7-methyl-6,7-dihydropyrazolo[1,5-a]pyrazin-4(5H)-one]: the IC50 on human mGlu2 receptor was determined as 61 nM. In the case of `C[C@H]1CN(c2ccc(C(F)(F)F)cc2)C(=O)c2c(-c3ccc4nc(N)cn4c3)cnn21` [Example 10, (7S)-3-(2-aminoimidazo[1,2-a]pyridin-6-yl)-7-methyl-5-[4-(trifluoromethyl)phenyl]-6,7-dihydropyrazolo[1,5-a]pyrazin-4(5H)-one], the IC50 on human mGlu2 receptor was determined as 302 nM. As to `C[C@H]1CN(c2ccc(C(F)(F)F)cc2)C(=O)c2c(-c3ccc4ncc(N)n4c3)cnn21` [Example 11, (7S)-3-(3-aminoimidazo[1,2-a]pyridin-6-yl)-7-methyl-5-[4-(trifluoromethyl)phenyl]-6,7-dihydropyrazolo[1,5-a]pyrazin-4(5H)-one], the IC50 at human mGlu2 receptor stood at 78 nM.

`C[C@H]1CN(c2ccc(C(F)(F)F)cn2)C(=O)c2c(-c3ccc4nccn4c3)cnn21` [Example 12, (7S)-3-(imidazo[1,2-a]pyridin-6-yl)-7-methyl-5-[5-(trifluoromethyl)pyridin-2-yl]-6,7-dihydropyrazolo[1,5-a]pyrazin-4(5H)-one]: on CYP3A4, the microsomal CLint came out at 0.159 µL/min/mg and the “CYP3A4 MBI” value is reported as 2.2. On to `C[C@H]1CN(c2ccc(C(F)(F)F)cc2)C(=O)c2c(-c3ccc4ncc(F)n4c3)cnn21` [Example 13, (7S)-3-(3-fluoroimidazo[1,2-a]pyridin-6-yl)-7-methyl-5-[4-(trifluoromethyl)phenyl]-6,7-dihydropyrazolo[1,5-a]pyrazin-4(5H)-one], for which the IC50 at human mGlu2 receptor stood at 7.9 nM. Still for that read-out and setting: next, `CCCc1cnc2ccc(-c3cnn4c3C(=O)N(c3ccc(C(F)(F)F)cc3)C[C@@H]4C)cn12` [Example 16, (7S)-7-methyl-3-(3-propylimidazo[1,2-a]pyridin-6-yl)-5-[4-(trifluoromethyl)phenyl]-6,7-dihydropyrazolo[1,5-a]pyrazin-4(5H)-one]: 13 nM. Regarding `Cc1cc(N2C[C@H](C)n3ncc(-c4ccc5nccn5c4)c3C2=O)ccc1F` [Example 17, (7S)-5-(4-fluoro-3-methylphenyl)-3-(imidazo[1,2-a]pyridin-6-yl)-7-methyl-6,7-dihydropyrazolo[1,5-a]pyrazin-4(5H)-one], on human mGlu2 receptor, the IC50 is 17 nM. At CYP3A4, the microsomal CLint is 1.94 µL/min/mg and the “CYP3A4 MBI” value was 3.2. With `Cc1cc(N2C[C@H](C)n3ncc(-c4ccc5ncc(F)n5c4)c3C2=O)ccc1F` [Example 18, (7S)-3-(3-fluoroimidazo[1,2-a]pyridin-6-yl)-5-(4-fluoro-3-methylphenyl)-7-methyl-6,7-dihydropyrazolo[1,5-a]pyrazin-4(5H)-one], the IC50 at human mGlu2 receptor was 6.9 nM.

For orientation: IC50 means the concentration needed to halve the response being measured. Usually microsomal CLint stands for a measure of how fast metabolising enzymes remove a compound, apart from limits set by blood flow. A higher microsomal CLint goes with faster metabolism.

Source of the values: patent publication US11633395B2, “Substituted pyrazolo[1,5-a]pyrazines as negative allosteric modulators of group II metabotropic glutamate receptor” (Sumitomo Pharma Co., Ltd., priority 2017, dated 2023).
